Data taken from PubChem BioAssay (NCI).
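Grown in 96-well plates, cells were treated for 48 hours with each compound at five concentrations. Insufficient inhibition: endpoint recorded as highest concentration tested. GI50: concentration for 50% inhibition of growth. TGI: concentration producing complete growth inhibition.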

Key:
Test in all cases: NCI-60 cell line screen, 48 h
[1] = test system: 786-0 renal
[2] = test system: A498 renal
[3] = test system: A549 NSCLC
[4] = test system: ACHN renal
[5] = test system: BT-549 breast
[6] = test system: CAKI-1 renal
[7] = test system: CCRF-CEM leukemia
[8] = test system: COLO 205 colon
[9] = test system: DU-145 prostate
[10] = test system: EKVX NSCLC
[11] = test system: HCC-2998 colon
[12] = test system: HCT-116 colon
[13] = test system: HCT-15 colon
[14] = test system: HL-60(TB) leukemia
[15] = test system: HOP-62 NSCLC
[16] = test system: HOP-92 NSCLC
[17] = test system: HS 578T breast
[18] = test system: HT29 colon
[19] = test system: IGROV1 ovarian
[20] = test system: K-562 leukemia
[21] = test system: KM12 colon
[22] = test system: LOX IMVI melanoma
[23] = test system: M14 melanoma
[24] = test system: MALME-3M melanoma
[25] = test system: MCF7 breast
[26] = test system: MDA-MB-231 breast
[27] = test system: MDA-MB-435
[28] = test system: MOLT-4 leukemia
[29] = test system: NCI-H226 lung
[30] = test system: NCI-H23 lung
[31] = test system: NCI-H460 lung
[32] = test system: NCI-H522 lung
[33] = test system: NCI/ADR-RES ovarian
[34] = test system: OVCAR-3 ovarian
[35] = test system: OVCAR-4 ovarian
[36] = test system: OVCAR-5 ovarian
[37] = test system: OVCAR-8 ovarian
[38] = test system: PC-3 prostate
[39] = test system: RPMI-8226 leukemia
[40] = test system: RXF 393 renal
[41] = test system: SF-268 CNS
[42] = test system: SF-295 CNS
[43] = test system: SF-539 CNS
[44] = test system: SK-MEL-2 melanoma
[45] = test system: SK-MEL-28 melanoma
[46] = test system: SK-MEL-5 melanoma
[47] = test system: SK-OV-3 ovarian
[48] = test system: SN12C renal
[49] = test system: SNB-19 CNS
[50] = test system: SNB-75 CNS
[51] = test system: SR leukemia
[52] = test system: SW-620 colon
[53] = test system: T-47D breast
[54] = test system: TK-10 renal
[55] = test system: U251 CNS
[56] = test system: UACC-257 melanoma
[57] = test system: UACC-62 melanoma
[58] = test system: UO-31 renal

Structure (SMILES): CN1CCN(C(=O)COc2ccc(C34CC5CC(CC(C5)C3)C4)cc2)CC1
- GI50 [1]: 11.3 µM
- TGI [1]: 23.5 µM
- GI50 [2]: 15.2 µM
- TGI [2]: 30.5 µM
- GI50 [3]: 13 µM
- TGI [3]: 37.2 µM
- GI50 [4]: 17.2 µM
- TGI [4]: 39.5 µM
- GI50 [5]: 12.2 µM
- TGI [5]: 26.5 µM
- GI50 [6]: 15.6 µM
- TGI [6]: 30.2 µM
- GI50 [7]: 5.44 µM
- TGI [7]: 27.8 µM
- GI50 [8]: 5.53 µM
- TGI [8]: 20.5 µM
- GI50 [9]: 19 µM
- TGI [9]: 55.7 µM
- GI50 [10]: 24.6 µM
- TGI [10]: > 100 µM
- GI50 [11]: 13.8 µM
- TGI [11]: 27.4 µM
- GI50 [12]: 13.9 µM
- TGI [12]: 26.9 µM
- GI50 [13]: 7.33 µM
- TGI [13]: 21 µM
- GI50 [14]: 4.7 µM
- TGI [14]: 23.2 µM
- GI50 [15]: 14.5 µM
- TGI [15]: 32.5 µM
- GI50 [16]: 1.47 µM
- TGI [16]: 7.23 µM
- GI50 [17]: 15.6 µM
- TGI [17]: 45.6 µM
- GI50 [18]: 4.66 µM
- TGI [18]: 19.1 µM
- GI50 [19]: 15 µM
- TGI [19]: 39.2 µM
- GI50 [20]: 4.38 µM
- TGI [20]: 46.5 µM
- GI50 [21]: 14.8 µM
- TGI [21]: 32.4 µM
- GI50 [22]: 12.3 µM
- TGI [22]: 25 µM
- GI50 [23]: 15.3 µM
- TGI [23]: 30.7 µM
- GI50 [24]: 7.64 µM
- TGI [24]: 22.3 µM
- GI50 [25]: 12.7 µM
- TGI [25]: 29.7 µM
- GI50 [26]: 13 µM
- TGI [26]: 27.8 µM
- GI50 [27]: 14.6 µM
- TGI [27]: 28.8 µM
- GI50 [28]: 13.2 µM
- TGI [28]: 94.9 µM
- GI50 [29]: 14 µM
- TGI [29]: 37.4 µM
- GI50 [30]: 15.3 µM
- TGI [30]: 36.7 µM
- GI50 [31]: 13.2 µM
- TGI [31]: 27.5 µM
- GI50 [32]: 15 µM
- TGI [32]: 33.4 µM
- GI50 [33]: 21.7 µM
- TGI [33]: 84.4 µM
- GI50 [34]: 13.4 µM
- TGI [34]: 27.3 µM
- GI50 [35]: 20.8 µM
- TGI [35]: 76.9 µM
- GI50 [36]: 17.6 µM
- TGI [36]: 44.6 µM
- GI50 [37]: 18.2 µM
- TGI [37]: 54.1 µM
- GI50 [38]: 4.87 µM
- TGI [38]: 21.6 µM
- GI50 [39]: 2.09 µM
- TGI [39]: 5.73 µM
- GI50 [40]: 7.44 µM
- TGI [40]: 21.1 µM
- GI50 [41]: 16.4 µM
- TGI [41]: 39.3 µM
- GI50 [42]: 13.5 µM
- TGI [42]: 27.8 µM
- GI50 [43]: 12.7 µM
- TGI [43]: 25.9 µM
- GI50 [44]: 15.5 µM
- TGI [44]: 30.4 µM
- GI50 [45]: 12.7 µM
- TGI [45]: 26.2 µM
- GI50 [46]: 10.3 µM
- TGI [46]: 22.7 µM
- GI50 [47]: 14 µM
- TGI [47]: 30.4 µM
- GI50 [48]: 12.6 µM
- TGI [48]: 26.1 µM
- GI50 [49]: 13.6 µM
- TGI [49]: 26.8 µM
- GI50 [50]: 14.1 µM
- TGI [50]: 29.3 µM
- GI50 [51]: 4.62 µM
- TGI [51]: 97.4 µM
- GI50 [52]: 12.8 µM
- TGI [52]: 29.6 µM
- GI50 [53]: 12.9 µM
- TGI [53]: 39.2 µM
- GI50 [54]: 16.7 µM
- TGI [54]: 33.2 µM
- GI50 [55]: 10.8 µM
- TGI [55]: 25 µM
- GI50 [56]: 12.8 µM
- TGI [56]: 31.9 µM
- GI50 [57]: 11 µM
- TGI [57]: 23.4 µM
- GI50 [58]: 12.4 µM
- TGI [58]: 25 µM
